# From patent US10821091B2, “Retinoid compositions and methods of increasing immune cell-mediated killing of IDH mutant cancer cells” (UNIVERSITY OF PITTSBURGH—OF THE COMMONWEALTH SYSTEM OF …, priority 2017, dated 2020)
# Tests used:
# [1] = system: NKG2D ligands in IDH mutant cells; test: qPCR of NKG2D ligand expression in ATRA-treated glioma cells; format: cell-based, human; conditions: 1 μM ATRA 48 hours, vs DMSO-treated cells
# Procedure: All-trans Retinoic acid (ATRA) treatment of astrocytes and primary glioma cells. ATRA was purchased from Sigma Aldrich® and reconstituted in DMSO. ATRA was added at a 1 μM final concentration to cell culture medium for 48 hours. After treatment, the cells either lysed in Trizol™ for qPCR analysis, or were used in NK cytotoxicity assays.
# Quantitative Real time RT-PCR. 5×10^5 IDH mutant and WT astrocytes, as well as patient glioma cells were lyzed in Trizol and RNA was extracted from the cells using the Chloroform extraction method. cDNA was transcribed from the RNA using iScript cDNA synthesis kit (BioRad). Real-time PCR was performed on an CFX96 Touch™ Real-Time PCR Detection System (Bio-Rad) equipped with a 96-well reaction plate. Briefly, 2 μL cDNA was added to 5 μL of the 2×SYBR Green PCR mastermix (Thermo Scientific), 800 nM of each primer, and water was added to 10 μL. The thermal denaturation protocol was run at the end of the PCR to determine the number of products that were present in the reaction. Reactions were typically run in triplicates. The cycle number at which the reaction crossed an arbitrarily-placed threshold (CT) was determined for each gene and the relative amount of each gene to 18 S rRNA was described using the equation 2^−ΔCT where ΔCT=(CTtargetRNA−CT18S rRNA).
# ATRA induced increased cytotoxic killing of IDH mutant cells in an NKG2D-ligand dependent manner. The ability of ATRA to sensitize IDH mutant cells to killing by NK cells was evaluated. For this purpose, IDH mutant and WT cells were treated with 1 μM ATRA for 48 hours and assessed for killing by NK-92 cells (ATCC) at a 10:1 E:T ratio. […] Also, as observed in vivo, increased NK-92 killing in IDH mutant cells was dependent upon NKG2D engagement. […] ATRA-treated cells were also evaluated for expression of NKG2D ligands.
# [2] = system: IDH mutant primary glioma cells; test: Tumor growth in athymic nude mice with flank glioma tumors; format: in vivo
# Procedure: Mice. 6-8 week old Balb/c nude mice (CAnN.Cg-Foxn1nu/Crl) were purchased from Charles River Laboratories. Mice were injected with 10^6 IDH WT or mutant primary glioma cells sub-cutaneously in the right flank. When the tumors were about 25 mm^2, ATRA treatment was started. 10 mg/Kg ATRA was administered to mice intra-peritoneally (i.p.) every alternate day until termination of the experiment. DMSO-treated mice were used as controls. The mice were monitored for signs of drug toxicity such as weight-loss, lethargy, skin lesions and diarrhea. The tumors were measured every 3 days, and the mice were sacrificed when the tumors were about 400 mm^2. For NK depletion experiments, 6-week old B6 nude mice (B6.Cg-Foxn1nu/J) were purchased from The Jackson Laboratory. NK depletion was performed by injecting mice with 200 μg of anti-NK1.1 antibody (Biolegend) i.p. on the day ATRA treatment was started. Mice injected with 200 μg of an isotype antibody were used as controls. Mice were bled and evaluated for circulating NKs by flow cytometry.
# ATRA promotes tumor stasis in IDH mutant tumor-bearing mice. To determine the value of ATRA as a therapeutic modality, its anti-tumor efficacy in vivo was evaluated. […] Tumors were measured every 3 days. […] Resected tumors from ATRA or DMSO-treated mice were digested to obtain single cell suspensions and assessed for killing by human and mouse NK cells ex vivo.
# IDH mutant gliomas = test: Survival in RCAS tva immunocompetent glioma mouse model; format: in vivo, mice
# Procedure: Immunocompetent mouse model. The RCAS/tva system was used to ectopically express muIDH1 (R132H) in PDGF-driven gliomas. RCAS retroviral vectors were used to transfer genes to specific cell types in vivo that express the receptor tva to develop a pair of isogenic mouse tumor models that differ only in IDH1 mutation status. Three RCAS vectors expressing PDGF, wtIDH1-shp53, or muIDH1 (R132H)-shp53 were constructed and used in three different Ntva mouse strains. Mice were injected with RCAS-PDGF-producing DF1 cells together with either DF1 cells producing RCAS-wtIDH1-shp53 (wtIDH1) or RCAS-mutantIDH1-shp53 (muIDH1). Tumors were generated from these injections with identical genomic backgrounds, with the initiating events differing only in IDH1 mutation status.
structure (smiles),measurement,setting,value
"CC1=C(/C=C/C(C)=C/C=C/C(C)=C/C(=O)O)C(C)(C)CCC1 [ATRA, all-trans retinoic acid]",expression of NKG2D ligand MICA,[1],increased expression
same,expression of NKG2D ligand MICB,[1],increased expression
same,expression of NKG2D ligand ULBP1,[1],increased expression
same,expression of NKG2D ligand ULBP3,[1],increased expression
same,tumor growth,"[2]; 10 mg/kg every other day for 21 days, vs DMSO (vehicle)-treated mice and mice with WT tumors",significantly slower tumor growth
same,ex vivo expression of ULBP1 and ULBP3 in tumors,[2]; ATRA-treated IDH mutant tumors (data not shown),increased ex vivo expression of ULBP1 and ULBP3
same,infiltration of NK cells in the tumor (immunohistochemistry),IDH mutant gliomas; ATRA-treated mice,increased infiltration of NK cells in the tumor
same,survival,"IDH mutant gliomas; mice bearing IDH mutant tumors, ATRA every alternate day for 21 days, vs vehicle-treated/IDH wild type",significantly longer survival
